Data: paper PMC9101764, “Synthesis and In Vitro Characterization of Selective Cannabinoid CB2 Receptor Agonists: Biological Evaluation against Neuroblastoma Cancer Cells” (Molecules, 2022)
pEC50, pIC50, pKi: −log10 of the molar value. Where two headings read alike, the source gives them in different places.

How the values were obtained:
[1] = target: T1, hCB2R (Homo sapiens, UniProt P34972); assay: HitHunter cAMP assay: inhibition of FSK-stimulated cAMP accumulation in CHO cells; format: cell-based; settings: for modulation of cAMP response: CHO cells expressing hCB2R
T1 construct: host or cells: HitHunter CHO-K1 cells
Method: For the cAMP inhibition assay, cells were treated with 10 μM FSK and synthetized compounds for 90 min to assess compound concentration-dependent activity.
(§1) CHO cells stably expressing hCB1R or hCB2R were maintained at 37 °C and 5% CO2 in Gibco Ham’s F-12 nutrient mix (Fisher Scientific, Loughborough, UK ) supplemented with 2 mM L-glutamine, 10% fetal bovine serum (FBS), 0.6% penicillin−streptomycin (Fisher Scientific, Loughborough UK), and the disulfate salt of geneticin (G418) as previously described (Sigma-Aldrich, Poole, UK). For subsequent radioligand displacement assays, membranes were prepared by scraping cells from flasks, centrifuging the cells, and storing the cell pellet at −20 °C. When required for us, cell pellets were defrosted and diluted in tris buffer (50 mM Tris-HCl and 50 mM Tris-base). As we have described in previous studies, HitHunter (cAMP) and PathHunter (βarrestin2) CHO-K1 cells stably expressing hCB1R or hCB2R from DiscoveRx® (Eurofins, Fremont, CA, USA) were maintained at 37 °C, 5% CO2 in F-12 DMEM containing 10% FBS and 1% Pen/Strep with 800 µg/mL geneticin (HitHunter) or 800 µg/mL G418 and 300 µg/mL hygromycin B (PathHunter).
The quantification of FSK-stimulated cAMP accumulation using the DiscoveRx HitHunter assay (DiscoveRx, Eurofins, Fremont, CA, USA) has been described in detail previously elsewhere. Briefly, 20,000 cells/well were plated in low-volume 96-well plates and incubated overnight in Opti-MEM with 1% FBS at 37 °C and 5% CO2. The next day, the media were replaced with cell assay buffer (DiscoveRx). Immediately after this, the cells were simultaneously treated with 10 µM FSK and ligands for 90 min. Subsequent additions of cAMP antibody solution and cAMP working detection solutions followed the manufacturer’s directions (DiscoveRx) and cells were stored for 60 min at room temperature. cAMP solution A (DiscoveRx) was added according to the manufacturer’s directions followed by another 60 min room temperature incubation prior to chemiluminescence being measured on a Cytation5 plate reader (top read, gain 200, integration time 10,000 ms).
(§2) Estimates of Ki, EC50, and Emax were determined using non-linear regression three-parameters (GraphPad, Prism, v. 9.0).
(§3) Data are fitted to a non−linear regression (three parameter model, GraphPad v. 9.0). Data are mean ± S.E.M. of 6 independent experiments performed in triplicate.

[2] = target: T2, hCB1R (Homo sapiens, UniProt P21554); assay: [3H]CP55,940 radioligand displacement assay, CHO cell membranes; format: binding; settings: for displacement of [3H]CP55,940 at hCB1R: CHO membranes, 0.1 nM-10 μM compounds
T2 construct: expressed in transfected cells; host or cells: CHO cells (membranes)
Method: as §1
(§4) We have previously described radioligand displacement assays in detail. […] Binding reactions were terminated by ice-cold tris binding buffer and subsequent vacuum filtration (24-well sampling manifold (Brandel cell harvester; Brandel Inc., Gaithersburg, MD, USA)) using Brandel GF/B filters soaked in wash buffer at 4 °C for at least 24 h. Filters were washed with 1.2 mL of tris-binding buffer six times, then oven-dried for 60 min before being incubated in 3 mL of scintillation fluid (Ultima Gold XR, PerkinElmer, Seer Green, Buckinghamshire, UK). Radioactivity was quantified by liquid scintillation spectrometry. All compounds were first prepared at 10 mM solutions in DMSO. The final vehicle concentration for assays was 0.1% DMSO. All assays were performed in duplicate.
as §2

[3] = target: T1, hCB2R; assay: as above; format: binding; settings: for displacement of [3H]CP55,940 at hCB2R: CHO membranes, 0.1 nM-10 μM compounds
Method: as §1, §4, §2

[4] = target: T1, hCB2R; assay: PathHunter β-arrestin2 recruitment assay in CHO cells; format: cell-based
Method: Compounds FG158a, FG160a, FG161a, and LV62 were also evaluated for their ability to recruit β-arrestin2, since G protein-coupled receptors also interact with β-arrestin, which facilitates receptor internalization, recycling, degradation, and signaling.
as §1
The quantification of β-arrestin2 recruitment using the DiscoveRx PathHunter assay has been described by our group previously and is summarized here.. Twenty thousand cells/well were grown overnight in Opti-MEM containing 1% FBS at 37 °C and 5% CO2 in low-volume 96 well plates. The next day, cells were treated with compounds for 90 min at 37 °C. Detection solution was added to cells according to the manufacturer’s directions (DiscoveRx) and cells were stored for 60 min at room temperature. After this incubation, chemiluminescence was quantified on a Cytation5 plate reader (top read, gain 200, integration time 10,000 ms).
as §2, §3

[5] = test system: SH-SY5Y cells; assay: SRB cell viability assay with pre-incubation of CB2R antagonist SR144528; format: cell-based, human; settings: SR144528 1 µM added 1 h before, 72 h, agonists at 10, 20 and 40 µM
Method: To address a CB2R-mediated mechanism, we tested FG158a, LV62, and FG160a at inhibitory concentrations in SH-SY5Y cells pre-incubated with the CB2R antagonist SR144528. After 72 h of treatment, we observed a reversion in cell viability at 20 and 40 µM of FG158a and FG160a in the presence of SR144528. The inhibitory effect of LV62 was reverted only at 40 µM (Figure 5).
Cells seeded for 24 h in triplicate in 96-well plates at a density of 8000 cells/well were left to adhere overnight. CB2R agonists were added to the culture in triplicate at concentrations ranging from 2.5–40 µM. After 24 h, 48 h, and 72 h, cells were fixed, shaking for 2 h at 4 °C with 50% v/v trichloroacetic acid and washed with distilled water. Cells left overnight to dry were stained with 0.4% w/v SRB in 1% v/v acetic acid (at room temperature for 30 min on a shaker) and then washed with 1% acetic acid to allow for the removal of the unbound dye. TRIS-HCl 10 mM, pH 7.4 was added to the cells and absorbance was measured at 495 nm as previously shown using a Glomax® Discover Microplate Reader (Promega, Madison, WI, USA). […]
Figure 5 CB2R–mediated effect on cell viability. […] Figures (A–C) report cell viability (mean of 3 independent experiments) expressed as absorbance (Abs). The statistical significance was calculated with two-way ANOVA using Tukey’s multiple comparisons test (* p ≤ 0.05).

[6] = test system: SH-SY5Y cells; assay: Sulforhodamine B (SRB) cell viability assay; format: cell-based, human; settings: for effect on cell viability: 24 h, 48 h and 72 h, 2.5–40 µM; for pIC50: Homo sapiens, 72 h of treatment, SRB, cis/trans mixture
Method: We tested the anti-proliferative activity of the novel CB2R agonists FG158a, FG160a, FG161a, and LV62 in neuroblastoma cell lines (Figure 4). The compounds were assayed as a mixture of cis and trans isomers. […] After 72 h of treatment, the effect was higher and could also be observed at lower concentrations. The inhibitory effect was confirmed in another neuroblastoma cell line, SK-N-BE cells.
Human neuroblastoma SHSY5Y and SK-N-BE cell lines were grown in DMEM (GIBCO, Paisley, UK) and MEM (Sigma-Aldrich, St.Louis, MO, USA), respectively, supplemented with 2 mM l-glutamine, […], 50 units/mL penicillin and 10% heat-inactivated fetal bovine serum (FBS) in a humidified atmosphere (5% CO2 at 37 °C). Cells were detached as previously described with 0.25% trypsin (Sigma-Aldrich) at 70–80% confluence.
Cells seeded for 24 h in triplicate in 96-well plates at a density of 8000 cells/well were left to adhere overnight. CB2R agonists were added to the culture in triplicate at concentrations ranging from 2.5–40 µM. After 24 h, 48 h, and 72 h, cells were fixed, shaking for 2 h at 4 °C with 50% v/v trichloroacetic acid and washed with distilled water. Cells left overnight to dry were stained with 0.4% w/v SRB in 1% v/v acetic acid (at room temperature for 30 min on a shaker) and then washed with 1% acetic acid to allow for the removal of the unbound dye. TRIS-HCl 10 mM, pH 7.4 was added to the cells and absorbance was measured at 495 nm as previously shown using a Glomax® Discover Microplate Reader (Promega, Madison, WI, USA). In combinatory assays, similar procedures were adopted and the CB2R antagonist SR144528 (1 µM) was added 1 h before the CB2 agonists (10, 20 and 40 µM) to SHSY5Y cells that were harvested as described above after 72 h of incubation.
Figure 4 Inhibition of cell viability. The effect on cell viability by CB2R agonists was determined by sulforhodamine B (SRB) assays in SH-SY5Y and SK-N-BE cell lines. SH-SY5Y cells were treated with the compounds indicated in the figure for 24 h (A), 48 h (B), and 72 h (C) at the concentrations reported in the histograms. SK-N-BE cells were treated with the same compounds for 72 h (D). Figures report cell viability (mean of at least 3 independent experiments ± SEM) as percent of cell survival vs. untreated cells (considered as 100% of survival). […] The statistical significance was calculated with two-way ANOVA using Dunnett’s multiple comparisons test.

[7] = test system: SH-SY5Y cells; set-up: method as in PMID 26842917; settings: presumably via a CB2R-independent mechanism; cited from earlier work
[8] = CHO cells expressing human CB2R, 10 μM FSK, 90 min
[9] = CHO cells expressing human CB2R, 90 min

T1 sequence (P34972 whole entry): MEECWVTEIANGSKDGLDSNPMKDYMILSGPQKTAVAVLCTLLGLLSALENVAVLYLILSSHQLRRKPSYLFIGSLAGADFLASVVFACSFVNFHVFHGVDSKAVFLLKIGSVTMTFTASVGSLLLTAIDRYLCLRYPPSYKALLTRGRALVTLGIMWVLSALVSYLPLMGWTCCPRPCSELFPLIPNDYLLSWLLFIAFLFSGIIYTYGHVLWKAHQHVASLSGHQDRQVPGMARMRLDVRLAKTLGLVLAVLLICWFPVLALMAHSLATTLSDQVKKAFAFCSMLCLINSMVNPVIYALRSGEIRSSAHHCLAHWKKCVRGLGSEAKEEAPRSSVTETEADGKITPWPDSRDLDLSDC
T2 sequence (P21554 whole entry): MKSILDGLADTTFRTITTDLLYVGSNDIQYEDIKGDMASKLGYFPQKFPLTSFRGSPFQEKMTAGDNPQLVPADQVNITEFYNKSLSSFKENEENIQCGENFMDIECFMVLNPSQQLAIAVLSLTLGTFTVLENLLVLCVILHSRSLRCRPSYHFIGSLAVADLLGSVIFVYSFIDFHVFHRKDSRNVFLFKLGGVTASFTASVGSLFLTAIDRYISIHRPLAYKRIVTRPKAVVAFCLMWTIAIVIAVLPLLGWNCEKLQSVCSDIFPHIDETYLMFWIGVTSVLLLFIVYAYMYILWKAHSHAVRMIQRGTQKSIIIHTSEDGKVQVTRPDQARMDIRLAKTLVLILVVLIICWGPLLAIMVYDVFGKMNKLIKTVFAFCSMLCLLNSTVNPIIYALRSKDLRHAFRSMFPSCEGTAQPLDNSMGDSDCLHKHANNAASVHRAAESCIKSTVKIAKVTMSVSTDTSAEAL

| Compound | pEC50 [1] | cAMP Inhibition Emax (% CP55,940) ± S.E.M [1, 8] | pKi [2] | displacement of [3H]CP55,940 at hCB1R [2] | pKi [3] | pEC50 [4] | β-arrestin2 recruitment ([4]; CHO cells expressing hCB2R, 90 min) | β-Arrestin2 Recruitment Emax (% CP55,940) ± S.E.M [4, 9] | reversion in cell viability in the presence of SR144528, agonist concentration [5] | effect on cell viability [6] | pIC50 [6] | effect on SH-SY5Y cell proliferation [7] | modulation of cAMP response ([1]; 10 μM FSK, 90 min) | pEC50 ([1]; CHO cells expressing human CB2R, 10 μM FSK, 90 min, read-out: cAMP Inhibition EC50 (95% C.I.)) | pKi ([2]; read-out: CB1R Ki) | displacement of [3H]CP55,940 at hCB2R [3] | pEC50 ([4]; CHO cells expressing human CB2R, 90 min, read-out: β-Arrestin2 Recruitment EC50 (95% C.I.)) | melting point |
| --- | --- | --- | --- | --- | --- | --- | --- | --- | --- | --- | --- | --- | --- | --- | --- | --- | --- | --- |
| CC1CCC(NC(=O)c2cc3cccnc3n(CCCCCO)c2=O)CC1 (stereo not drawn) [LV62, reference compound] | 7.47 | 110 ± 8.8 % CP55,940 | < 5.00 | not able to displace [^3H]CP55,940 | 7.43 | 7.20 | produced an increase in the β-arrestin2 recruitment | 65 ± 1.4 % CP55,940 | only at 40 | inhibited cell viability | 4.42 | – | – | – | – | – | – | – |
| CCCC(C)(C)c1ccc2c(c1)OC(C)(C)[C@@H]1CC=C(C)C[C@@H]21 [JWH-133] | – | – | – | – | – | – | – | – | – | – | – | inhibits SH-SY5Y cell proliferation | – | – | – | – | – | – |
| CC1CCC(NC(=O)c2cc3cccnc3n(CCCCCN=[N+]=[N-])c2=O)CC1 (stereo not drawn) [FG161a, 1-(5-azidopentyl)-N-(4-methylcyclohexyl)-2-oxo-1,2-dihydro-1,8-naphthyridine-3-carboxamide] | – | 78 ± 11 % CP55,940 | – | not able to displace [^3H]CP55,940 | 7.35 | – | – | 47 ± 1.8 % CP55,940 | – | inhibited cell viability | 4.56 | – | able to modulate the cAMP response | 6.12 | < 5.00 | fully displaced [^3H]CP55,940 | < 5.00 | 115 to 117 °C |
| CC1CCC(NC(=O)c2cc3cccnc3n(CCCCCCl)c2=O)CC1 (stereo not drawn) [FG160a, 1-(5-chloropentyl)-N-(4-methylcyclohexyl)-2-oxo-1,2-dihydro-1,8-naphthyridine-3-carboxamide] | 6.22 | 90 ± 3.1 % CP55,940 | < 5.00 | not able to displace [^3H]CP55,940 | 7.78 | < 5.00 | – | 41 ± 1.0 % CP55,940 | – | inhibited cell viability | 4.88 | – | able to modulate the cAMP response | – | – | fully displaced [^3H]CP55,940 | – | 124 to 126 °C |
